Starred links: 1 amine or outer side, 2 acyl side, 3 side chain; linkers in the order of their positions; H or OH if unused. Positions of bridges follow the written chain, without caps; N, C: chain ends. Non-standard residues stand in square brackets, D forms with d. Residues, ends and D or L forms follow the SMILES beside them. Chains are numbered I, II in the order given. Actinocin(9to1) = Cc1c2oc3c(C)ccc(C(=O)[*:1])c3nc-2c(C(=O)[*:2])c(N)c1=O; NMeV = CN[C@H](C(=O)O)C(C)C; Sar = CNCC(=O)O
Key:
Format in all cases: cell-based, human
[1] = test system: MMP-9 secretion from HT 1080 cells; assay: MMP-9 secretion and activity assay (zymogram gels of cell medium); conditions: for MMP-9 secretion in response to various PMA concentrations at 133 mM alcohol: 133 mM alcohol 45 min before PMA, FIG. 4B; for effect on PMA-induced MMP-9 secretion at 200 mM alcohol: 200 mM alcohol 45 min before 100 nM PMA
Description: FIG. 4. […] Overnight serum-deprived cells were incubated in freshly added DMEM, 0.1% BSA. A, the indicated concentrations of either 2-propanol or 1-propanol were then added. After 45 min, 100 nM PMA-was added and cells were incubated for 7.5 h after which media samples (5 ? l) were analyzed for MMP-9 secretion. B, the cells were incubated with 133 mM 2-propanol or 1-propanol for 45 min. PMAa was then introduced to give the indicated concentrations. The cells were incubated for 7.5 h after which 5 ? l media samples were analyzed for MMP-9 secretion. The data shown are representative of three independent experiments. […]
MMP-9 secretion and activity assay Before assay, the cell medium was replaced with fresh DMEM, 0.1% BSA containing, unless otherwise described, 100 nM PMA. In experiments involving inhibition with BFA, it was added 30 min before induction with PMA. Medium samples were collected after 7.5 h and loaded with non-reducing sample buffer (2% SDS, 10% glycerol in 62.5 mM Tris pH 6.8) on zymogram gels. Before developing, gels were rinsed for 30 min in renaturing buffer and then 30 min in developing buffer at room temperature. Gels were incubated in fresh developing buffer for 18 h at 37° C. MMP-9 activity was indicated by the clear 92 kDa band that appeared after staining with Coomassie brilliant blue and removing excess dye by an 18 h rinse in water. Gels were dried and scanned and then the image was inverted (clear to black and black to clear).

[2] = test system: MMP-9 expression in HT 1080 cells; assay: Cell lysis and immunoblotting with rabbit anti MMP-9; conditions: 7.5 h
Description: FIG. 6. Phophatidic acid mediates protein kinase C induction of MMP-9 expression. A, Overnight serum-deprived cells were incubated in freshly added DMEM, 0.1% BSA containing either 100 nM PMA or 80 ? g/ml DDPA. B. Overnight serum-deprived cells were incubated in freshly added DMEM, 0.1% BSA containing 0.5% of either 1-propanol or 2-propanol for control. Following 7.5 h incubation cells were lysed with RIPA buffer and 15 ? g whole cell lysate were subjected to SDS-PAGE and immunoblotting with rabbit anti MMP-9. Immunoreactive bands were visualized using the ECL reaction. The data shown are representative of three independent experiments.
Cell lysis and immunoblotting Overnight serum-deprived cells in 60 mm plates were washed with PBS and then lysed with 750 μl RIPA^− buffer (1% NP-40, 0.1% SDS, 100 mM NaF, 10 mM Na pyrophosphate, 2.5 mM Na3VO4 in PBS). RIPA^− soluble fraction was separated from the non-solube fraction by 15 min centrifugation in a bench top microcentrifuge at 14,000 rpm at 4° C. Protein samples (15 μg) were analyzed after SDS-polyacrylamide gel electrophoresis (SDS-PAGE) by immunoblotting with rabbit anti MMP-9 or anti actin diluted according to manufacturer instructions in PBS, 0.5% Tween 20 and 5% dry milk powder and with horseradish peroxidase-labeled secondary antibody. Immunoreactive bands were visualized by the enhanced chemiluminescence (ECL) reaction.

PLD in HT 1080 cells = assay: In vivo PLD assay ([3H]phosphatidylbutanol formation in labeled cells)
Description: FIG. 2. Activation of PLD in PMA-treated HT 1080 cells. The cells, at their log phase of growth, were serum deprived and labeled with […] [^3H]myristic acid. Following washing and preincubation with DMEM, 0.1% BSA, 0.3% 1-butanol for 20 min, and 100 nM PMA were added, and cells were incubated for the indicated times at 37° C. Lipids were extracted and analyzed, and the production of labelled phosphatidylbutanol ([^3H]PtdBut) was measured as described under “Materials and Methods”. The values obtained for [^3H]PtdBut were normalized by dividing the measured counts/min by counts/min in the total lipid fraction. Data are expressed as the mean±S.E. of the fold activation in three independent experiments performed in triplicates.
In vivo PLD assay Serum-deprived cells were labeled for 18 h with 1 μCi/ml [^3H]myristic acid and were washed with DMEM, 0.1% BSA. Following 20 min preincubation in DMEM, 0.1% BSA, 0.3% 1-butanol, the cells were stimulated with, unless otherwise described, 100 nM PMA for 20 min. Cells were washed with phosphate saline buffer (PBS) (2.68 mM KC1, 1.47 mM KH2PO4, 8.05 mM Na2PO4, 137 mM NaC1), 0.1% BSA, scraped with 1 ml ice cold CH3OH and transferred into glass tubes. CHC13 and 0.1 N HC1 were added to a final ratio of 1:1:1. The lipid-containing lower phase was collected, dried and dissolved in 30 μl CH3OH, CHC13 (1:1). The samples were loaded on a TLC plate which was developed in the lower phase of H2O, ethylacetate, acetic acid and iso-octane (100:110:20:50 respectively). Tritiated phosphatidylbutanol (PdtBut) was measured after scraping the band corresponding to the PtdBut standard (Avanti Polar Lipids).

## CCCO [1-propanol]
[1]; 100 mM alcohol 45 min before 100 nM PMA, 7.5 h, FIG. 4A
  effect on PMA-induced MMP-9 secretion at 100 mM alcohol: inhibited
[1]; 7.5 h
  MMP-9 secretion in response to various PMA concentrations at 133 mM alcohol: almost totally suppressed
[1]; 7.5 h, FIG. 4A
  effect on PMA-induced MMP-9 secretion at 200 mM alcohol: almost absolute suppression
[2]; 0.5% alcohol pretreatment, PMA, whole cell lysate, FIG. 6
  MMP-9 expression in PMA-treated cells (immunoblot): suppressed

## CC(C)O [2-propanol]
[1]; 7.5 h
  MMP-9 secretion in response to various PMA concentrations at 133 mM alcohol: continues to be dose-dependent
[1]; 7.5 h, FIG. 4A
  effect on PMA-induced MMP-9 secretion at 200 mM alcohol: inhibitory

## Cc1c2oc3c(C)ccc(C(=O)N[C@@H]4C(=O)N[C@H](C(C)C)C(=O)N5CCC[C@H]5C(=O)N(C)CC(=O)N(C)[C@@H](C(C)C)C(=O)O[C@@H]4C)c3nc-2c(C(=O)N[C@@H]2C(=O)N[C@H](C(C)C)C(=O)N3CCC[C@H]3C(=O)N(C)CC(=O)N(C)[C@@H](C(C)C)C(=O)O[C@@H]2C)c(N)c1=O [ActD, actinomycin D] (I: T[dV]P[Sar][NMeV] / II: T[dV]P[Sar][NMeV]; ester I:1-I:C, II:1-II:C; linker I:N-II:N via Actinocin(9to1))
[1]; 10 μg/ml ActD 45 min, then 80 μg/ml DDPA, 7.5 h, FIG. 5
  effect on MMP-9 secretion induced with phosphatidic acid: fully decreased

## CCCCCCCCCCCCCC(=O)O[C@@H]1[C@@H](C)[C@@]2(O)[C@@H](C=C(CO)C[C@]3(O)C(=O)C(C)=C[C@@H]23)[C@@H]2C(C)(C)[C@]12OC(C)=O [PMA, phorbol 12-myristate 13-acetate]
PLD in HT 1080 cells; 100 nM PMA, 0.3% 1-butanol, FIG. 2
  time at which PtdBut formation (PLD activity) reaches a maximum: 90 min
PLD in HT 1080 cells; HT 1080 cells, data not shown
  concentration at which the PLD response is detectable: 1 nM
  concentration at which the PLD response is maximal: 100 nM
[1]; HT 1080 cells, 100 nM PMA, various times up to 7.5 h
  MMP-9 activity accumulating in the medium of treated cells: time-dependent manner
[1]; HT 1080 cells, 7.5 h, FIG. 1B
  lowest concentrations at which MMP-9 secretion is detected: 0.5 to 1 nM

## Cn1cc(C2=C(c3cn(CCCSC(=N)N)c4ccccc34)C(=O)NC2=O)c2ccccc21 [Ro 31-8220]
[1]; 5 μM inhibitor preincubated 1 h, then 100 nM PMA, 7.5 h, FIG. 1C
  effect on PMA-induced MMP-9 secretion: inhibition of secretion

## diodecanoylphosphatidic acid [DDPA]
[1]; HT 1080 cells, various concentrations, 7.5 h, FIG. 3
  induction of MMP-9 secretion: induces MMP-9 secretion in a dose-dependent manner

## phosphatidic acid [PA]
[2]; HT 1080 cells, 80 μg/ml DDPA, FIG. 6A
  induction of MMP-9 expression (immunoblot): induces de novo MMP-9 expression
